Assay [1] addresses T1, angiotensin converting enzyme (ACE) (Oryctolagus cuniculus, UniProt P12822).
T1 construct: Using ACE isolated from rabbit lungs; from tissue; host or cells: rabbit lungs
T1 sequence (P12822 34-1310): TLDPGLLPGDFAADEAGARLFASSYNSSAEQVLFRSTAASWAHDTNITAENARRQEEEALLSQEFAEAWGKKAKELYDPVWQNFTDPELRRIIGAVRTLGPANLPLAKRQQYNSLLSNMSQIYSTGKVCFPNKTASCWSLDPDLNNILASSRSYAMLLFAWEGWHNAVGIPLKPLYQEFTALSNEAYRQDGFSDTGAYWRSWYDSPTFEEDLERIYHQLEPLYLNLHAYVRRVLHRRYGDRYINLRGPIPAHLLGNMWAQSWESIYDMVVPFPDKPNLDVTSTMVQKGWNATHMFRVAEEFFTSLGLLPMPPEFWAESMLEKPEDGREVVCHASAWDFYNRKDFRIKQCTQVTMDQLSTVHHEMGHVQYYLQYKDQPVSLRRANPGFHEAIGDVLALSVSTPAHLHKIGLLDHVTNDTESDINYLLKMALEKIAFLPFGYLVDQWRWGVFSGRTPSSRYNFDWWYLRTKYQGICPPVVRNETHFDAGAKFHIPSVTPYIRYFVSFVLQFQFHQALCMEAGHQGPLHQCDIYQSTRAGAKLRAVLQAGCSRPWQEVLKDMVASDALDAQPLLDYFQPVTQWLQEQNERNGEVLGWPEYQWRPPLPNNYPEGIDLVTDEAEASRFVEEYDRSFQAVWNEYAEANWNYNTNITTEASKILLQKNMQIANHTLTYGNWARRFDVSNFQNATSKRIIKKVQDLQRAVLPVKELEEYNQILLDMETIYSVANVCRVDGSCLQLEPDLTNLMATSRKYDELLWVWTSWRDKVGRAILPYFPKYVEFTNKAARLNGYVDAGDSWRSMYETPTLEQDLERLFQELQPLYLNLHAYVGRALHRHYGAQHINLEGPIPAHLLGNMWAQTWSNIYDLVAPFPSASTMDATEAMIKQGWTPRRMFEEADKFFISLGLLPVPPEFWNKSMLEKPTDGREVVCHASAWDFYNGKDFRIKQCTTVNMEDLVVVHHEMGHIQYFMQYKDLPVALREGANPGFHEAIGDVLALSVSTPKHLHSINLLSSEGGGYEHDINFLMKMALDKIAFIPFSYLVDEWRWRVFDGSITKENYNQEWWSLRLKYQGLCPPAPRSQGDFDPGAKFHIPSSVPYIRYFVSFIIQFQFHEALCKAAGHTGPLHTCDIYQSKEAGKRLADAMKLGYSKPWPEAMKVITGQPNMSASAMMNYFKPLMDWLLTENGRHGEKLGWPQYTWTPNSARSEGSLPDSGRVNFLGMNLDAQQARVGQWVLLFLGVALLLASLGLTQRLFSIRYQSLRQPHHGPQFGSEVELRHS
Put plainly: in vitro evaluation of inhibitory effects on ACE activity (method of Cushman). To be noted: ACE isolated from rabbit lungs; for IC50: Table 1, in vitro. Type of assay: biochemical. On the procedure:
The efficacy of the compounds of the present invention can be tested by evaluating their inhibitory effects on the angiotensin converting enzyme (ACE). Using ACE isolated from rabbit lungs, in vitro evaluation of inhibitory effects on ACE activity was carried out according to the method of Cushman [Biochem. Pharmacol., 20, 1637(1971)]. […] Some of the compounds obtained in the other examples were also tested by in vitro evaluation of inhibitory effects on ACE activity and the results thus obtained are summarized in Table 1.

The test system of assay [2] is spontaneously occurring hypertensive rats (SHR). Put plainly: depressor effect after oral administration in spontaneously occurring hypertensive rats (SHR), systolic blood pressure of caudal artery. The conditions noted are these: 50 mg/kg oral, unanesthetized male SHR. The format is in vivo, rat. As for the experimental part: The compounds of the present invention can also be tested by evaluating their depressor effects. Such evaluation was carried out by using spontaneously occurring hypertensive rats (SHR). Male rats, aged 20 weeks or more, were fasted for 17 hours. Then, under an unanesthetized condition, the systolic blood pressure of their caudal artery was nonsurgically measured before medication as well as 2,4,6 and 24 hours after medication. Test compounds were orally administered to groups of 3-5 rats showing a systolic blood pressure of 180 mmHg or above.
When the compound of Example 10 was orally administered in a dose of 50 mg/kg, the blood pressure was reduced by 26, 34 and 46 mmHg after the lapse of 2, 4 and 6 hours, respectively.

The structures appear in SMILES notation. Structures can show the parent of a compound that is named as a salt.

One may read the IC50 as the midpoint of a concentration-inhibition curve.

With `O=C(O)CN1C(=O)C(NC(CCc2ccccc2)C(=O)O)CSc2ccccc21` (stereo not drawn) [Example 8, 3-(1-carboxy-3-phenylpropylamino)-5-carboxymethyl-2,3-dihydro-1,5-benzothiazepin-4(5H)-one], the inhibition at 0.01 µM in assay [1] (0.01 μM, read-out: inhibited ACE activity) was found to be 14.8%. In assay [1] (0.1 μM, read-out: inhibited ACE activity), the inhibition at 0.1 µM was 77.8%. Take `CCOC(=O)C(CCc1ccccc1)NC1CSc2ccccc2N(CC(=O)O)C1=O.Cl` (stereo not drawn) [Example 10, 5-carboxymethyl-3-(1-ethoxycarbonyl-3-phenylpropylamino)-2,3-dihydro-1,5-benzothiazepin-4(5H)-one hydrochloride]: the “depressor effect, persistence” value in assay [2] (24 hours) is “found to persist even after 24 hours”. Further, the “blood pressure was reduced by” value in assay [2] (after 2 hours) amounted to 26 mmHg; in assay [2] (after 4 hours), 34 mmHg; in assay [2] (after 6 hours), 46 mmHg. For `CCOC(=O)C(C)NC1CSc2ccccc2N(CC(=O)O)C1=O` (stereo not drawn) [Example 12, 5-carboxymethyl-3-(1-ethoxycarbonylethylamino)-2,3-dihydro-1,5-benzothiazepin-4(5H)-one hydrochloride], in assay [1], the half-maximal inhibitory concentration (IC50) worked out at 7000 nM. Same read-out and setting: the result for `CC(NC1CSc2ccccc2N(CC(=O)O)C1=O)C(=O)O` (stereo not drawn) [Example 13, 5-carboxymethyl-3-(1-carboxyethylamino)-2,3-dihydro-1,5-benzothiazepin-4(5H)-one hydrochloride] reads 470 nM; that for `CCOC(=O)CNC1CSc2ccccc2N(CC(=O)O)C1=O` (stereo not drawn) [Example 15, 5-carboxymethyl-3-ethoxycarbonylmethylamino-2,3-dihydro-1,5-benzothiazepin-4(5H)-one hydrochloride], > 100000 nM; that for `O=C(O)CNC1CSc2ccccc2N(CC(=O)O)C1=O` (stereo not drawn) [Example 16, 5-carboxymethyl-3-carboxymethylamino-2,3-dihydro-1,5-benzothiazepin-4(5H)-one hydrochloride], 8200 nM. Consider `CCCCCCCCC(NC1CSc2ccccc2N(CC(=O)O)C1=O)C(=O)OCC` (stereo not drawn) [Example 18, 5-carboxymethyl-3-(1-ethoxycarbonylnonylamino)-2,3-dihydro-1,5-benzothiazepin-4(5H)-one], for which 160 nM corresponded to half-maximal inhibition in assay [1] (IC50). `CCCCCCCCC(NC1CSc2ccccc2N(CC(=O)O)C1=O)C(=O)O` (stereo not drawn) [Example 19, 5-carboxymethyl-3-(1-carboxynonylamino)-2,3-dihydro-1,5-benzothiazepin-4(5H)-one] had an IC50 in assay [1] of 10 nM.

(Values after patent US4539150A, “Benzothiazepine derivatives and their methods of preparation” (Mitsui Toatsu Chemicals, Inc., priority 1983, dated 1985).)
